Consider eleven compounds from patent publication US8076487B2, “Pyridone derivative and herbicide” (Kumiai Chemical Industry Co., Ltd., priority 2006, dated 2011).

Common to all, as to type: in vivo
Assay [1] relates to Japanese bulrush (Scirpus juncoides Roxb.). Put plainly: Test Example 1: herbicidal effect by soil application to paddy field. Particulars: paddy field soil application; active ingredient 1,000 g per 1 hectare; wettable powder added dropwise to water surface the day after sowing; examined on the 21st day after application. A digest of the protocol:
(§1)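 Plants were sown in flooded (3 cm) paddy soil and evaluated for herbicidal effect 21 days after soil application in a greenhouse.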

Assay [2] has as its system early watergrass (Echinochloa oryzicola Vasing). The assay is described as above. Particulars: paddy field soil application; active ingredient 1,000 g per 1 hectare; wettable powder added dropwise to water surface the day after sowing; examined on the 21st day after application. In a few lines: as §1
Assay [3] relates to heartshape false pickerelweed (Monochoria vaginalis (Burm.f.) C.Presl). The assay is described as above. The following applies: paddy field soil application; active ingredient 1,000 g per 1 hectare; wettable powder added dropwise to water surface the day after sowing; examined on the 21st day after application. In a few lines: as §1
Assay [4] concerns barnyardgrass (Echinochloa crus-galli (L.) P. Beauv. var. crus-galli). Put plainly: Test Example 3: herbicidal effect by application to upland field (foliage treatment). Particulars: 14th day after application; for herbicidal effect, Barnyardgrass: foliage treatment, 1,000 g active ingredient per 1 hectare, greenhouse. A digest of the protocol:
(§2)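 Sow in field soil; grow 2 weeks in greenhouse; spray foliage from above with wettable-powder dilution (1,000 g AI/ha, 1,000 L/ha); return to greenhouse; score effect at day 14 against a standard.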

Assay [5] has as its system green foxtail (Setaria viridis (L.) P. Beauv.). Described as above. The following applies: 14th day after application; for herbicidal effect, Green Foxtail: foliage treatment, 1,000 g active ingredient per 1 hectare, greenhouse. A digest of the protocol: as §2
For assay [6], the system named is slender amaranth (Amaranthus viridis L.). Described as above. The following applies: 14th day after application; for herbicidal effect, Slender Amaranth: foliage treatment, 1,000 g active ingredient per 1 hectare, greenhouse. A digest of the protocol:
as §2

Assay [7] concerns velvetleaf (Abutilon theophrasti medicus). Described as above. Particulars: 14th day after application; for herbicidal effect, Velvetleaf: foliage treatment, 1,000 g active ingredient per 1 hectare, greenhouse. In a few lines:
as §2

Where [8] appears, read: foliage treatment, plants grown two weeks, 1,000 g active ingredient per hectare.

Consider `Cn1ncc(C(=O)c2ccc(C(F)(F)F)n(CCC[S+](C)[O-])c2=O)c1O` (centres unmarked) [IV-58], for which, in assay [1], the “herbicidal effect, Scirpus juncoides Roxb.” value is 4 (70 to less than 90% of herbicidal effect and crop phytotoxicity). In addition, the “herbicidal effect, Echinochloa oryzicola Vasing” value in assay [2] was 5 (90% or more of herbicidal effect and crop phytotoxicity). In addition, the “herbicidal effect, Monochoria vaginalis (Burm. f.) C. Presl” value (“herbicidal effect, Monochoria vaginalis” below) in assay [3] was 4 (70 to less than 90% of herbicidal effect and crop phytotoxicity). The “herbicidal effect, Barnyardgrass” value in assay [4] is 5 (90% or more of herbicidal effect and crop phytotoxicity). The “herbicidal effect, Green Foxtail” value in assay [5] was 4 (70 to less than 90% of herbicidal effect and crop phytotoxicity). In addition, the “herbicidal effect, Slender Amaranth” value in assay [6] is 5 (90% or more of herbicidal effect and crop phytotoxicity). Also, the “herbicidal effect, Velvetleaf” value in assay [7] is 4 (70 to less than 90% of herbicidal effect and crop phytotoxicity).

Consider `COc1ccccc1COc1c(C(=O)c2ccc(C(F)(F)F)n(C)c2=O)cnn1C` [IV-193], for which the “herbicidal effect, Scirpus juncoides Roxb.” value in assay [1] is 5 (90% or more of herbicidal effect and crop phytotoxicity). The “herbicidal effect, Echinochloa oryzicola Vasing” value in assay [2] was 5 (90% or more of herbicidal effect and crop phytotoxicity). Moreover, the “herbicidal effect, Monochoria vaginalis” value in assay [3] was 5 (90% or more of herbicidal effect and crop phytotoxicity). Also, in assay [4], the “herbicidal effect, Barnyardgrass” value was 3 (50 to less than 70% of herbicidal effect and crop phytotoxicity). Besides, the “herbicidal effect, Green Foxtail” value in assay [5] is 4 (70 to less than 90% of herbicidal effect and crop phytotoxicity). The “herbicidal effect, Slender Amaranth” value in assay [6] is 5 (90% or more of herbicidal effect and crop phytotoxicity). Moreover, the “herbicidal effect, Velvetleaf” value in assay [7] was 5 (90% or more of herbicidal effect and crop phytotoxicity).

`Cn1ncc(C(=O)c2ccc(C(F)(F)F)n(-c3cccc(S(C)(=O)=O)c3)c2=O)c1O` [IV-74]: the “herbicidal effect, Scirpus juncoides Roxb.” value in assay [1] is 5 (90% or more of herbicidal effect and crop phytotoxicity). The “herbicidal effect, Echinochloa oryzicola Vasing” value in assay [2] was 4 (70 to less than 90% of herbicidal effect and crop phytotoxicity). The “herbicidal effect, Monochoria vaginalis” value in assay [3] is 4 (70 to less than 90% of herbicidal effect and crop phytotoxicity). Besides, the “herbicidal effect, Barnyardgrass” value in assay [4] is 4 (70 to less than 90% of herbicidal effect and crop phytotoxicity). Further, the “herbicidal effect, Green Foxtail” value in assay [5] is 4 (70 to less than 90% of herbicidal effect and crop phytotoxicity). For the same compound, in assay [6], the “herbicidal effect, Slender Amaranth” value was 5 (90% or more of herbicidal effect and crop phytotoxicity). Also, the “herbicidal effect, Velvetleaf” value in assay [7] was 5 (90% or more of herbicidal effect and crop phytotoxicity).

For `C=CCn1c(C(F)(F)F)ccc(C(=O)c2cnn(CC)c2OS(=O)(=O)CCC)c1=O` [IV-12], the “herbicidal effect, Scirpus juncoides Roxb.” value in assay [1] was 5 (90% or more of herbicidal effect and crop phytotoxicity). In assay [2], the “herbicidal effect, Echinochloa oryzicola Vasing” value is 5 (90% or more of herbicidal effect and crop phytotoxicity). In addition, the “herbicidal effect, Monochoria vaginalis” value in assay [3] was 5 (90% or more of herbicidal effect and crop phytotoxicity). In addition, the “herbicidal effect, Barnyardgrass” value in assay [4] was 5 (90% or more of herbicidal effect and crop phytotoxicity). Further, the “herbicidal effect, Green Foxtail” value in assay [5] is 4 (70 to less than 90% of herbicidal effect and crop phytotoxicity). For the same compound, the “herbicidal effect, Slender Amaranth” value in assay [6] was 5 (90% or more of herbicidal effect and crop phytotoxicity). In addition, the “herbicidal effect, Velvetleaf” value in assay [7] is 5 (90% or more of herbicidal effect and crop phytotoxicity).

`CSCCCn1c(C(F)(F)F)ccc(C(=O)C2=C(O)C3CCC(C3)C2=O)c1=O` (centres unmarked) [III-31]: in assay [1], the “herbicidal effect, Scirpus juncoides Roxb.” value is 5 (90% or more of herbicidal effect and crop phytotoxicity). Besides, in assay [2], the “herbicidal effect, Echinochloa oryzicola Vasing” value was 5 (90% or more of herbicidal effect and crop phytotoxicity). Also, in assay [3], the “herbicidal effect, Monochoria vaginalis” value was 5 (90% or more of herbicidal effect and crop phytotoxicity). The “herbicidal effect, Barnyardgrass” value in assay [4] is 5 (90% or more of herbicidal effect and crop phytotoxicity). Also, the “herbicidal effect, Green Foxtail” value in assay [5] is 5 (90% or more of herbicidal effect and crop phytotoxicity). Further, the “herbicidal effect, Slender Amaranth” value in assay [6] is 5 (90% or more of herbicidal effect and crop phytotoxicity). Also, in assay [7], the “herbicidal effect, Velvetleaf” value was 5 (90% or more of herbicidal effect and crop phytotoxicity).

Regarding `CCCS(=O)(=O)Oc1c(C(=O)c2ccc(C(F)(F)F)n(-c3ccc4c(c3)OCO4)c2=O)cnn1C(C)C` [IV-100], the “herbicidal effect, Scirpus juncoides Roxb.” value in assay [1] is 5 (90% or more of herbicidal effect and crop phytotoxicity). In addition, the “herbicidal effect, Echinochloa oryzicola Vasing” value in assay [2] is 5 (90% or more of herbicidal effect and crop phytotoxicity). Further, the “herbicidal effect, Monochoria vaginalis” value in assay [3] was 5 (90% or more of herbicidal effect and crop phytotoxicity). Further, the “herbicidal effect, Barnyardgrass” value in assay [4] was 5 (90% or more of herbicidal effect and crop phytotoxicity). Moreover, the “herbicidal effect, Green Foxtail” value in assay [5] is 5 (90% or more of herbicidal effect and crop phytotoxicity). In addition, in assay [6], the “herbicidal effect, Slender Amaranth” value is 4 (70 to less than 90% of herbicidal effect and crop phytotoxicity). For the same compound, the “herbicidal effect, Velvetleaf” value in assay [7] is 5 (90% or more of herbicidal effect and crop phytotoxicity).

For `CNn1c(C(F)(F)F)ccc(C(=O)C2=C(O)CCCC2=O)c1=O` [I-157], the “herbicidal effect, Scirpus juncoides Roxb.” value in assay [1] is 5 (90% or more of herbicidal effect and crop phytotoxicity). Besides, in assay [2], the “herbicidal effect, Echinochloa oryzicola Vasing” value is 5 (90% or more of herbicidal effect and crop phytotoxicity). Also, the “herbicidal effect, Monochoria vaginalis” value in assay [3] was 5 (90% or more of herbicidal effect and crop phytotoxicity). Moreover, the “herbicidal effect, Barnyardgrass” value in assay [4] is 5 (90% or more of herbicidal effect and crop phytotoxicity). Further, the “herbicidal effect, Green Foxtail” value in assay [5] was 5 (90% or more of herbicidal effect and crop phytotoxicity). Besides, the “herbicidal effect, Slender Amaranth” value in assay [6] was 5 (90% or more of herbicidal effect and crop phytotoxicity). The “herbicidal effect, Velvetleaf” value in assay [7] is 5 (90% or more of herbicidal effect and crop phytotoxicity).

As for `Cc1nn(C)c(O)c1C(=O)c1ccc(C(F)(F)F)n(C)c1=O` [IV-231], in assay [1], the “herbicidal effect, Scirpus juncoides Roxb.” value is 5 (90% or more of herbicidal effect and crop phytotoxicity). Besides, the “herbicidal effect, Echinochloa oryzicola Vasing” value in assay [2] was 5 (90% or more of herbicidal effect and crop phytotoxicity). Besides, the “herbicidal effect, Monochoria vaginalis” value in assay [3] was 5 (90% or more of herbicidal effect and crop phytotoxicity). Besides, the “herbicidal effect, Barnyardgrass” value in assay [4] was 3 (50 to less than 70% of herbicidal effect and crop phytotoxicity). For the same compound, in assay [5], the “herbicidal effect, Green Foxtail” value is 5 (90% or more of herbicidal effect and crop phytotoxicity). Further, the “herbicidal effect, Slender Amaranth” value in assay [6] is 5 (90% or more of herbicidal effect and crop phytotoxicity). Also, the “herbicidal effect, Velvetleaf” value in assay [7] is 5 (90% or more of herbicidal effect and crop phytotoxicity).

As to `Cn1c(C(F)(F)F)ccc(C(=O)C2=C(O)CC(C)(C)CC2=O)c1=O` [II-3], in assay [1], the “herbicidal effect, Scirpus juncoides Roxb.” value was 5 (90% or more of herbicidal effect and crop phytotoxicity). The “herbicidal effect, Echinochloa oryzicola Vasing” value in assay [2] is 5 (90% or more of herbicidal effect and crop phytotoxicity). Also, in assay [3], the “herbicidal effect, Monochoria vaginalis” value was 5 (90% or more of herbicidal effect and crop phytotoxicity). The “herbicidal effect, Barnyardgrass” value in assay [4] is 3 (50 to less than 70% of herbicidal effect and crop phytotoxicity). Moreover, the “herbicidal effect, Green Foxtail” value in assay [5] was 4 (70 to less than 90% of herbicidal effect and crop phytotoxicity). The “herbicidal effect, Slender Amaranth” value in assay [6] is 5 (90% or more of herbicidal effect and crop phytotoxicity). Also, the “herbicidal effect, Velvetleaf” value in assay [7] was 5 (90% or more of herbicidal effect and crop phytotoxicity).

As for `C#CCn1c(C(F)(F)F)ccc(C(=O)C2=C(O)CCCC2=O)c1=O` [I-14], the “herbicidal effect, Scirpus juncoides Roxb.” value in assay [1] was 5 (90% or more of herbicidal effect and crop phytotoxicity). Besides, in assay [2], the “herbicidal effect, Echinochloa oryzicola Vasing” value was 5 (90% or more of herbicidal effect and crop phytotoxicity). In addition, the “herbicidal effect, Monochoria vaginalis” value in assay [3] was 5 (90% or more of herbicidal effect and crop phytotoxicity). The “herbicidal effect (index), Barnyardgrass” value in assay [4] (setting [8]) was 5 (90% or more of herbicidal effect and crop phytotoxicity). In addition, in assay [5] (setting [8]), the “herbicidal effect (index), Green Foxtail” value is 5 (90% or more of herbicidal effect and crop phytotoxicity). Also, the “herbicidal effect (index), Slender Amaranth” value in assay [6] (setting [8]) is 5 (90% or more of herbicidal effect and crop phytotoxicity). Further, the “herbicidal effect (index), Velvetleaf” value in assay [7] (setting [8]) was 5 (90% or more of herbicidal effect and crop phytotoxicity).

For the compound `O=C(C1=C(O)C2C=CC(C2)C1=O)c1ccc(C(F)(F)F)n(CC2CCCO2)c1=O` (centres unmarked) [III-43], in assay [1], the “herbicidal effect, Scirpus juncoides Roxb.” value was 5 (90% or more of herbicidal effect and crop phytotoxicity). Further, the “herbicidal effect, Echinochloa oryzicola Vasing” value in assay [2] was 5 (90% or more of herbicidal effect and crop phytotoxicity). Moreover, the “herbicidal effect, Monochoria vaginalis” value in assay [3] is 5 (90% or more of herbicidal effect and crop phytotoxicity). Besides, in assay [4], the “herbicidal effect, Barnyardgrass” value was 5 (90% or more of herbicidal effect and crop phytotoxicity). The “herbicidal effect, Green Foxtail” value in assay [5] is 3 (50 to less than 70% of herbicidal effect and crop phytotoxicity). Moreover, in assay [6], the “herbicidal effect, Slender Amaranth” value is 5 (90% or more of herbicidal effect and crop phytotoxicity). Also, the “herbicidal effect, Velvetleaf” value in assay [7] is 5 (90% or more of herbicidal effect and crop phytotoxicity).
